Reference: patent publication US5534498A, “Trypsin inhibitors” (Corvas International, Inc., priority 1993, dated 1996)

Assays:
bovine thrombin = target: T1, bovine thrombin (Bos taurus, UniProt P00735); experiment: Thrombin assay (S-2238 substrate); assay type: biochemical; conditions: 30 min preincubation, room temperature; tested 0.025-25 μM; Inact. = no inhibition at highest concentration
T1 construct: 50 μL 20 nM bovine thrombin
Experimental: (§1) The specificity of the peptide aldehydes (8 through 12) was determined in vitro by measurement of their IC50 against other enzymes involved in hemostasis. A specific concentration of enzyme and its substrate were challenged with varying concentrations of inhibitor. IC50 is that concentration of inhibitor giving 50% inhibition of substrate turnover, under the assay conditions. Specific assay procedures used are presented below.
(§2) 96-well microtiter plates were prepared for use in these assays by incubating each well with 300 μL 1% bovine serum albumin (in deionized water) for 30 minutes at 37° C., then washing three times with deionized water.
Enzyme activity was determined using as substrate, S-2238 [D-phenylalanyl-L-pipecolyl-L-arginine-p-nitroanilide dihydrochloride], purchased from Kabi Diagnostica. The substrate was made up in deionized water prior to use.
The assay was run by combining in appropriate wells 50 μL TBS and 50 μL inhibitor in TBS or TBS alone and 50 μL 20 nM bovine thrombin (or TBS as background control), incubating this mixture for 30 minutes at room temperature, adding 50 μL 1 mM S-2238, incubating for an additional 30 minutes at room temperature, then reading the absorbance of the wells at 405 nm on a microtiter plate reader set with background substraction at 650 nm.

Factor VIIa:rTF complex = target: T2, Factor VIIa:rTF complex (Homo sapiens, UniProt P08709); experiment: Factor VIIa assay (S-2288 substrate); assay type: biochemical; conditions: 30 min preincubation, room temperature; tested 0.025-25 μM; Inact. = no inhibition at highest concentration
T2 construct: 2.5 ml 400 nMhuman Factor VIIa
T2 sequence (P08709 213-466 limits assumed): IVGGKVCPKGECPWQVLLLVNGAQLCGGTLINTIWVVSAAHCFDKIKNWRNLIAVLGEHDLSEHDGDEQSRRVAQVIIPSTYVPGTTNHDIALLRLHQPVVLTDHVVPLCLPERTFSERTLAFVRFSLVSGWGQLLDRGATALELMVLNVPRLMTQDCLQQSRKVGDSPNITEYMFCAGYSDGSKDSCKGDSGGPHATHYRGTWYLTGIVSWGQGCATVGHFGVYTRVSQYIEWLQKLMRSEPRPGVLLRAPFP
T2 sequence (P08709 61-212 partner limits assumed): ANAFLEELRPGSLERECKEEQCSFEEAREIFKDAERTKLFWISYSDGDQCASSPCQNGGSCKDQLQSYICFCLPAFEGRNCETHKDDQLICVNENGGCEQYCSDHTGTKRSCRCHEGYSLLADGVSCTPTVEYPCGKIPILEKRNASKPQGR
T2 sequence (P13726 33-295 partner): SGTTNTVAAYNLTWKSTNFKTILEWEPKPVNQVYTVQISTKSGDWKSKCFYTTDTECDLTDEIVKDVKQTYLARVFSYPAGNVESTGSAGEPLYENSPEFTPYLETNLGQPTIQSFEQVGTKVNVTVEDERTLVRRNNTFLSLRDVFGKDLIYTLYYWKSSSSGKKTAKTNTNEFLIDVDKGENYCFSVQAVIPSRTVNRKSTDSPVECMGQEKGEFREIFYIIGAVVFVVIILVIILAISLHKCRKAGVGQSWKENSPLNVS
Experimental: as §1, §2
Enzyme activity was determined using as substrate, S-2288 [D-isoleucyl-L-prolyl-L-arginine-p-nitroanilide dihydrochloride], purchased from Kabi Diagnostica. The substrate was made up in deionized water prior to use.
Both solutions were then incubated for 30 minutes at room temperature before use in the assay.
The assay was run by combining in appropriate wells 50 μL inhibitor in TBS or TBS alone and 100 μL of Factor VIIa:rTF complex or background control, incubating this mixture for 30 minutes at room temperature, adding 50 μL of 2 mM S-2288, incubating for an additional 30 to 60 minutes at room temperature, then reading the absorbance of the wells at 405 nm on a microtiter plate reader set with background substraction at 650 nm.

trypsin [1] = conditions: literature (Jones); read-out: dissociation constant (Kd) trypsin; cited from earlier work
[2] = target: recombinant tissue plasminogen activator (Homo sapiens, UniProt P00750); experiment: Tissue plasminogen activator assay (S-2288 substrate); assay type: biochemical; conditions: 30 min preincubation, room temperature; tested 0.025-25 μM; Inact. = no inhibition at highest concentration
recombinant tissue plasminogen activator, sequence (P00750 36-562): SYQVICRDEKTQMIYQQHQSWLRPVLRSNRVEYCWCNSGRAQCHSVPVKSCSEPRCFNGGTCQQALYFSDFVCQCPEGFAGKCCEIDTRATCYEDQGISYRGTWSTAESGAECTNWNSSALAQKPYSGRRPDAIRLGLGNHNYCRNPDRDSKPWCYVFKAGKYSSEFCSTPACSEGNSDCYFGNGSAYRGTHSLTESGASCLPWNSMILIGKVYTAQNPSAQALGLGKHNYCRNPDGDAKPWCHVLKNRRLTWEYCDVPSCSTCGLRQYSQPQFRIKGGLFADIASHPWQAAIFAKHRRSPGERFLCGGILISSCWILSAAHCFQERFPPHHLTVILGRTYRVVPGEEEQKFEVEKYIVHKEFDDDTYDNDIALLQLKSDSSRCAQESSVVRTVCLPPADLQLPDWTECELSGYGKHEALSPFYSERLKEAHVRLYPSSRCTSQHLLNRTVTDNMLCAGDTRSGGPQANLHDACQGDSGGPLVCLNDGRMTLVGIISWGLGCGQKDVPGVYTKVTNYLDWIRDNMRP
Experimental: (§3) The specificity of the peptide aldehydes (8 through 12) was determined in vitro by measurement of their IC50 against other enzymes involved in hemostasis. A specific concentration of enzyme and its substrate were challenged with varying concentrations of inhibitor. […] Specific assay procedures used are presented below.
as §2
The substrate was made up in deionized water prior to use.

kallikrein = conditions: literature; cited from earlier work
[3] = target: T3, Activated human Protein C (Homo sapiens, UniProt P04070); experiment: Protein C assay (Pefachrome PC substrate); assay type: biochemical; conditions: 30 min preincubation, room temperature; tested 0.025-25 μM; Inact. = no inhibition at highest concentration
T3 construct: from tissue
T3 sequence (P04070 212-461 limits assumed): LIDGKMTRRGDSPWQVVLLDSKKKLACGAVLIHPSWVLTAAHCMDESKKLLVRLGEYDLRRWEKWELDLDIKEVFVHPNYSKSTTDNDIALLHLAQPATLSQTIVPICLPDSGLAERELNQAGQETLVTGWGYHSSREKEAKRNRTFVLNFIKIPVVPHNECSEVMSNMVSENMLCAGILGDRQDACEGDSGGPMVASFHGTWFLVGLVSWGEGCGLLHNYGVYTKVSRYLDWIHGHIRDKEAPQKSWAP
T3 sequence (P04070 43-197 partner limits assumed): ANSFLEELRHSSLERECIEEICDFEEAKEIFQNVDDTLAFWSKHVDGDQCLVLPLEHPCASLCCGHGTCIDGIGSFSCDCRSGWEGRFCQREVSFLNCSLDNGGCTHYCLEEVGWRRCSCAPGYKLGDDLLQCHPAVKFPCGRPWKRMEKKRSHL
Experimental: as §3, §2
Enzyme activity was determined using as substrate, Pefachrome PC [δ-carbobenzoloxy-D-lysyl-L-prolyl-L-arginine-p-nitroanilide], purchased from Centerchem, Inc. The substrate was made up in deionized water prior to use. Protac used to activate Protein C was obtained from American Diagnostics.

human acute pancreatitis = conditions: literature reports; cited from earlier work
human Factor Xa = target: T4, human Factor Xa (Homo sapiens, UniProt P00742); experiment: Factor Xa assay (Pefachrome Xa substrate); assay type: biochemical; conditions: 30 min preincubation, room temperature; tested 0.025-25 μM; Inact. = no inhibition at highest concentration
T4 construct: 50 μL 30 nM human Factor Xa
T4 sequence (P00742 235-488 limits assumed): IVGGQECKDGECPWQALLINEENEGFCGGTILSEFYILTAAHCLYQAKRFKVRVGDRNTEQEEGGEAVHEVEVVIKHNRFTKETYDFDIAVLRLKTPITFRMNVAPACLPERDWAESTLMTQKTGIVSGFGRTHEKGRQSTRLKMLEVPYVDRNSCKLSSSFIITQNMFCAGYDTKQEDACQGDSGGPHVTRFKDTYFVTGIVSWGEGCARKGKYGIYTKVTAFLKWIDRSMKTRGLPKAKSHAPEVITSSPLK
T4 sequence (P00742 41-179 partner limits assumed): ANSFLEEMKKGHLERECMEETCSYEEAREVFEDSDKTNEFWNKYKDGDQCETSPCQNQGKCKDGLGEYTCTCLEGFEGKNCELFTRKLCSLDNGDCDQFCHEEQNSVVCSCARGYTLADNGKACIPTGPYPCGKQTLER
Experimental: as §3, §2
Enzyme activity was determined using as substrate, Pefachrome Xa [N-methoxycarbonyl-D-cyclohexylalanyl-L-glycyl-L-arginine p-niroanilide acetate], purchased from Centerchem, Inc. The substrate was made up in deionized water prior to use.

trypsin [4] = conditions: literature (Saino et al.); cited from earlier work

Row | Molecule | IC50 Thrombin (bovine thrombin) | IC50 (Factor VIIa:rTF complex) [nM] | Kd (trypsin [1]) [nM] | IC50 tPA [2] | Kd (kallikrein) [nM] | IC50 [3] [nM] | efficacy in the treatment of human acute pancreatitis (human acute pancreatitis) | IC50 Xa (human Factor Xa) | IC50 against trypsin, times lower than that for N-acetyl-L-leucyl-L-leucy-L-argininal (trypsin [4])
1 | Aprotinin [reference compound] | Inact. | > 25000 | 0.03 | Inact. | 100 | 2000 | ineffective | Inact. | 
2 | CC(C)C[C@H](NC(=O)[C@@H]1CCC(=O)N1C(=O)OCc1ccccc1)C(=O)N[C@H](C=O)CCCNC(=N)N [N-benzyloxycarbonyl-L-pyroglutamyl-L-leucyl-L-argininal] |  |  |  |  |  |  |  |  | about 7 times
